# Data as given in PubChem BioAssay AID1963432 (Molecular Pharmacology Branch, DTP, NCI, 2024).
# System: SYO-1 complex spheroid growth, percent test/control
# Test: Anticancer human tumor SYO-1 cell line growth inhibition [Asc];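 note: compound exposure lasted 7 days after spheroids grew 3 days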;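 for viability, T/C: 100% = DMSO vehicle control viability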
# Details: for IC50: curve of first compound; for viability, T/C: stronger effect = lower value
# Procedure: Multicellular complex tumor spheroid response to apoptosis pathway targeting inhibitors Alrizomadlin, Pelcitoclax, and Dasminapant in combination with a variety of drugs and investigational agents in selected tumor cell lines
# The MDM2 inhibitor alrizomadlin, the Bcl-2/Bcl-xL inhibitor pelcitoclax, and the IAPs inhibitor dasminapant were evaluated both individually and in combination with standard of care and investigational anticancer small molecules within a complex spheroid model of solid tumors. . Complex spheroids include a stromal component modeled by human endothelial cells (HUVEC) and fibroblasts modeled by human mesenchymal stem cells (MSCs). The concentration ranges selected for each drug and investigational agent were based upon clinically achievable concentrations if the clinical Cmax of the agent was known.
# Compounds. The drugs and investigational agents: alrizomadlin (APG-115; NSC831270), pelcitoclax (APG-1252; NSC835773), dasminapant (APG-1387;NSC834197), TAK-243 (NSC785004), copanlisib (NSC809693), olaparib (NSC753686), talazoparib (NSC767125), cobimetinib (NSC 768068), eltanexor (KPT-8602, NSC 794443), abemaciclib (NSC 768073), sotorasib (NSC818433), adagrasib (NSC 831453), MRTX-1133 (NSC 836407), Iadademestat (ORY1001, NSC 806812), and RMC-4630 (NSC839698), were obtained from the NCI Developmental Therapeutics Program Chemical Repository. The FDA-approved anticancer drug set is available from the Developmental Therapeutics Program at https://dtp.cancer.gov/organization/dscb/obtaining/available plates.htm. […] The stock solutions were prepared in dimethyl sulfoxide (DMSO, Sigma-Aldrich, St. Louis, MO, cat. D2650) at 800-fold the tested concentration and stored at -70 degrees C prior to their use. All drugs and investigational agents were tested over a range starting from a high concentration at or near the clinical Cmax and decreasing in half-log increments. If the clinical Cmax for an agent had not been determined, the highest concentration tested was 10 microM.
# The patient-derived cancer (PDC) cell lines include five colon adenocarcinomas: 186277-243-T-J2-PDC, 616215-338-R-J1-PDC, 439559-082-T-J2-PDC, 463943-066-T-J2-PDC, and 519858-162-T-J1-PDC; three pancreatic carcinomas: 323965-272-R-J2-PDC, 521955-158-R6-J3-PDC, and 521955-158-R2-J5-PDC; two uterine sarcomas: 327498-152-R-J2-PDC and 993429-296-R-J1-PDC; two rhabdomyosarcomas: 755483-174-R-J1-PDC and 772245-204-R-J1-PDC; two soft tissue sarcomas: 126254-015-R-J1-PDC and 494315-158-R-J1-PDC; two malignant fibrous histiocytomas: 317291-083-R-J1-PDC and 596521-263-R-J1-PDC; two breast carcinomas: 171881-019-R-J1-PDC and 885512-296-R-J2-PDC; and one ovarian carcinoma: 6556581-035-R-J-PDC were obtained from the NCI PDMR, (https://pdmr.cancer.gov). The established cell lines HSSY-2 synovial sarcoma (RRID:CVCL 8719), SYO-1 synovial sarcoma (RRID:CVCL_7146), MPNST malignant peripheral neural sheath tumor were obtained from the Sloan Kettering Institute. The following established cell lines were purchased from the American Type Culture Collection (ATCC, Manassas, VA), Sor the received from the NCI repository:, PANC-1 pancreatic carcinoma (CRL-1469, RRID:CVCL_0480), OVCAR-5 ovarian carcinoma (RRID:CVCL_1628), OVCAR-8 ovarian carcinoma (RRID:CVCL_1629), , MCF-7 breast carcinoma (CRL-12584, RRID:CVCL_0031), MDA-MB-231 breast carcinoma (CRL-12532, RRID:CVCL_0062), NCI-H1876 small cell lung carcinoma (CRL-5902, RRID:CVCL_1503), NCI-H510A small cell lung carcinoma (HTB-184, RRID:CVCL_1565), NCI-H1417 (CRL-5869, RRID:CVCL_1469), and NCI-H196 small cell lung carcinoma (CRL-5823, RRID:CVCL_1509). Dr. Peter Houghton (Greehey Children's Cancer Research Institute, University of Texas Health Science Center, San Antonio, TX) provided Rh-18 rhabdomyosarcoma (RRID:CVCL_1659). Pooled donor human umbilical vein endothelial cells (HUVEC, Lonza, cat. CC-2519) and human mesenchymal stem cells (hMSC, Lonza, cat. PT-2501) were purchased from Lonza (Walkersville, MD).
# Cell Culture. […]
# [1] = second compound 0.00949 µM, first compound 0.0316 µM
# [2] = second compound 0.00949 µM, first compound 0.1 µM
# [3] = second compound 0.03 µM, first compound 0.0316 µM
# [4] = second compound 0.03 µM, first compound 0.1 µM
# [5] = second compound 0.0949 µM, first compound 0.0316 µM
# [6] = second compound 0.0949 µM, first compound 0.1 µM
# [7] = second compound 0.3 µM, first compound 0.0316 µM
# [8] = second compound 0.3 µM, first compound 0.1 µM
# [9] = second compound 0.949 µM, first compound 0.0316 µM
# [10] = second compound 0.949 µM, first compound 0.1 µM
# [11] = second compound 3 µM, first compound 0.0316 µM
# [12] = second compound 3 µM, first compound 0.1 µM
structure (smiles),measurement,setting,value
Cn1ncnc1[C@H]1c2n[nH]c(=O)c3cc(F)cc(c23)N[C@@H]1c1ccc(F)cc1 + CCN1C(C(=O)NC23CCC(C(=O)O)(CC2)CC3)C(c2cccc(Cl)c2F)C2(C(=O)Nc3cc(Cl)ccc32)C12CCCCC2,IC50,second compound 0.00949 µM,16.8 nM
same,IC50,second compound 0.03 µM,6.16 nM
same,IC50,second compound 0.0949 µM,1.56 nM
same,IC50,second compound 0.3 µM,< 0.316 nM
same,IC50,second compound 0.949 µM,< 0.316 nM
same,IC50,second compound 3 µM,< 0.316 nM
same,"viability, T/C","second compound 0.00949 µM, first compound 0.000316 µM",112%
same,"viability, T/C","second compound 0.00949 µM, first compound 0.001 µM",104%
same,"viability, T/C","second compound 0.00949 µM, first compound 0.00316 µM",96.2%
same,"viability, T/C","second compound 0.00949 µM, first compound 0.01 µM",78.7%
same,"viability, T/C",[1],14.9%
same,"viability, T/C",[2],7.79%
same,"viability, T/C","second compound 0.03 µM, first compound 0.000316 µM",104%
same,"viability, T/C","second compound 0.03 µM, first compound 0.001 µM",98.2%
same,"viability, T/C","second compound 0.03 µM, first compound 0.00316 µM",87.5%
same,"viability, T/C","second compound 0.03 µM, first compound 0.01 µM",22.8%
same,"viability, T/C",[3],6.44%
same,"viability, T/C",[4],4.46%
same,"viability, T/C","second compound 0.0949 µM, first compound 0.000316 µM",90.8%
same,"viability, T/C","second compound 0.0949 µM, first compound 0.001 µM",66.6%
same,"viability, T/C","second compound 0.0949 µM, first compound 0.00316 µM",23.7%
same,"viability, T/C","second compound 0.0949 µM, first compound 0.01 µM",7.28%
same,"viability, T/C",[5],6.03%
same,"viability, T/C",[6],3.35%
same,"viability, T/C","second compound 0.3 µM, first compound 0.000316 µM",15.8%
same,"viability, T/C","second compound 0.3 µM, first compound 0.001 µM",9.59%
same,"viability, T/C","second compound 0.3 µM, first compound 0.00316 µM",5.54%
same,"viability, T/C","second compound 0.3 µM, first compound 0.01 µM",4.13%
same,"viability, T/C",[7],2.99%
same,"viability, T/C",[8],2.63%
same,"viability, T/C","second compound 0.949 µM, first compound 0.000316 µM",3.8%
same,"viability, T/C","second compound 0.949 µM, first compound 0.001 µM",2.11%
same,"viability, T/C","second compound 0.949 µM, first compound 0.00316 µM",2.99%
same,"viability, T/C","second compound 0.949 µM, first compound 0.01 µM",1.27%
same,"viability, T/C",[9],1.77%
same,"viability, T/C",[10],1.2%
same,"viability, T/C","second compound 3 µM, first compound 0.000316 µM",10.9%
same,"viability, T/C","second compound 3 µM, first compound 0.001 µM",1.49%
same,"viability, T/C","second compound 3 µM, first compound 0.00316 µM",2.04%
same,"viability, T/C","second compound 3 µM, first compound 0.01 µM",1.73%
same,"viability, T/C",[11],1.53%
same,"viability, T/C",[12],1.16%
O=C(c1cc(Cc2n[nH]c(=O)c3ccccc23)ccc1F)N1CCN(C(=O)C2CC2)CC1 + CCN1C(C(=O)NC23CCC(C(=O)O)(CC2)CC3)C(c2cccc(Cl)c2F)C2(C(=O)Nc3cc(Cl)ccc32)C12CCCCC2,IC50,second compound 0.00949 µM,1840 nM
same,IC50,second compound 0.03 µM,1130 nM
same,IC50,second compound 0.0949 µM,155 nM
same,IC50,second compound 0.3 µM,< 31.6 nM
same,IC50,second compound 0.949 µM,< 31.6 nM
same,IC50,second compound 3 µM,< 31.6 nM
same,"viability, T/C",[1],104%
same,"viability, T/C",[2],93.4%
same,"viability, T/C","second compound 0.00949 µM, first compound 0.316 µM",99.4%
same,"viability, T/C","second compound 0.00949 µM, first compound 1 µM",92%
same,"viability, T/C","second compound 0.00949 µM, first compound 3.16 µM",12.9%
same,"viability, T/C","second compound 0.00949 µM, first compound 10 µM",4.28%
same,"viability, T/C",[3],102%
same,"viability, T/C",[4],89.3%
same,"viability, T/C","second compound 0.03 µM, first compound 0.316 µM",92.4%
same,"viability, T/C","second compound 0.03 µM, first compound 1 µM",55.2%
same,"viability, T/C","second compound 0.03 µM, first compound 3.16 µM",6.53%
same,"viability, T/C","second compound 0.03 µM, first compound 10 µM",4.33%
same,"viability, T/C",[5],71.7%
same,"viability, T/C",[6],54.1%
same,"viability, T/C","second compound 0.0949 µM, first compound 0.316 µM",40.9%
same,"viability, T/C","second compound 0.0949 µM, first compound 1 µM",12.4%
same,"viability, T/C","second compound 0.0949 µM, first compound 3.16 µM",4.71%
same,"viability, T/C","second compound 0.0949 µM, first compound 10 µM",3.12%
same,"viability, T/C",[7],9.88%
same,"viability, T/C",[8],9.34%
same,"viability, T/C","second compound 0.3 µM, first compound 0.316 µM",8.44%
same,"viability, T/C","second compound 0.3 µM, first compound 1 µM",4.25%
same,"viability, T/C","second compound 0.3 µM, first compound 3.16 µM",4.23%
same,"viability, T/C","second compound 0.3 µM, first compound 10 µM",2.9%
same,"viability, T/C",[9],1.89%
same,"viability, T/C",[10],1.57%
same,"viability, T/C","second compound 0.949 µM, first compound 0.316 µM",3.08%
same,"viability, T/C","second compound 0.949 µM, first compound 1 µM",2.92%
same,"viability, T/C","second compound 0.949 µM, first compound 3.16 µM",2.34%
same,"viability, T/C","second compound 0.949 µM, first compound 10 µM",1.51%
same,"viability, T/C",[11],1.11%
same,"viability, T/C",[12],1.24%
same,"viability, T/C","second compound 3 µM, first compound 0.316 µM",2.68%
same,"viability, T/C","second compound 3 µM, first compound 1 µM",1.1%
same,"viability, T/C","second compound 3 µM, first compound 3.16 µM",1.22%
same,"viability, T/C","second compound 3 µM, first compound 10 µM",1%
